Patent publication US4472388A, “N-Methanesulfonic acid derivatives of 3-O-demethylistamycin B and production thereof” (Zaidan Hojin Biseibutsu Kagaku Kenkyu Kai, priority 1982, dated 1984)
≈ marks a conversion by molar mass, not a printed value.

Tests used:
[1] = tested on: Staphylococcus aureus Ap01; assay: Minimum inhibitory concentration, serial dilution on Mueller-Hinton agar; assay type: cell-based; conditions: 37° C., 17 hours
Text: (§1) Minimum inhibitory concentrations (mcg/ml) of the parent 3-O-demethylistamycin B were also estimated in the same manner for the comparison purpose and also are shown in Table 1.

Providencia Pv 16 = assay: as above; assay type: cell-based; conditions: 17 hours; for Minimum inhibitory concentration: 37° C.
Text: as §1

[2] = tested on: Escherichia coli JR66/W677; assay: as above; assay type: cell-based; conditions: for Minimum inhibitory concentration: Escherichia coli JR66/W677, Mueller-Hinton agar, 37° C., 17 hours
Text: as §1

[3] = tested on: Staphylococcus aureus 209P; assay: as above; assay type: cell-based; conditions: 37° C., 17 hours
Text: as §1

[4] = tested on: Pseudomonas aeruginosa TI-13; assay: as above; assay type: cell-based; conditions: for Minimum inhibitory concentration: Pseudomonas aeruginosa TI-13, Mueller-Hinton agar, 37° C., 17 hours
Text: as §1

[5] = tested on: Pseudomonas aeruginosa A3; assay: as above; assay type: cell-based; conditions: for Minimum inhibitory concentration: Pseudomonas aeruginosa A3, Mueller-Hinton agar, 37° C., 17 hours
Text: as §1

[6] = tested on: Pseudomonas aeruginosa GN315; assay: as above; assay type: cell-based; conditions: for Minimum inhibitory concentration: Pseudomonas aeruginosa GN315, Mueller-Hinton agar, 37° C., 17 hours
Text: as §1

[7] = tested on: Pseudomonas aeruginosa H9; assay: as above; assay type: cell-based; conditions: 37° C., 17 hours
Text: as §1

Serratia marcescens = assay: as above; assay type: cell-based; conditions: for Minimum inhibitory concentration: Mueller-Hinton agar, 37° C., 17 hours
Text: as §1

Escherichia coli K-12 R5 = assay: as above; assay type: cell-based
Text: as §1

[8] = tested on: Escherichia coli K-12 C600 R135; assay: as above; assay type: cell-based; conditions: K12C600R135, 37° C., 17 hours
Text: as §1

[9] = tested on: Escherichia coli K-12 ML1629; assay: as above; assay type: cell-based; conditions: K12ML1629, 37° C., 17 hours
Text: as §1

Escherichia coli JR225 = assay: as above; assay type: cell-based; conditions: JR225, 17 h, read-out: Minimum inhibitory concentration
Text: as §1

Escherichia coli K-12 = assay: as above; assay type: cell-based; conditions: K12, 37° C., 17 hours
Text: as §1

[10] = tested on: Escherichia coli K-12 LA290 R55; assay: as above; assay type: cell-based
Text: as §1

[11] = Acute toxicity, intravenous administration in mice; assay type: in vivo; conditions: ICR mice
Method: A test compound was diissolved in 0.25 ml of a physiological saline solution and the solution of the test compound so prepared was intravenously administered into a series of mouse groups each consisting of six mice (ICR strain, adult female, body weight 20 g±0.5 g) as the test animal, […] Acute toxicity of 3-O-demethylistamycin B was also estimated in the same manner as above for the comparison purpose. […]

[12] = tested on: gram-negative and gram-positive bacteria, including Pseudomonas aeruginosa; conditions: cited earlier filings; cited from earlier work

Molecule “3-O-demethylistamycin B-tri-N-methanesulfonic acid sodium salt [Compound (3)]” has a Minimum inhibitory concentration [1] of 1.56 µg/mL, a Minimum inhibitory concentration (Providencia Pv 16) of 3.13 µg/mL and a Minimum inhibitory concentration [2] of 6.25 µg/mL. For the same molecule, the Minimum inhibitory concentration [3] was 0.78 µg/mL, the Minimum inhibitory concentration [4] was 6.25 µg/mL and the Minimum inhibitory concentration [5] was 0.78 µg/mL. For the same molecule, the Minimum inhibitory concentration [6] was 12.5 µg/mL, the Minimum inhibitory concentration [7] was 12.5 µg/mL and the Minimum inhibitory concentration (Serratia marcescens) was 12.5 µg/mL.
Molecule “3-O-demethylistamycin B-di-N-methanesulfonic acid sodium salt [Compound (2)]” has a Minimum inhibitory concentration [1] of 1.56 µg/mL, a Minimum inhibitory concentration (Providencia Pv 16) of 3.13 µg/mL and a Minimum inhibitory concentration [2] of 6.25 µg/mL. The Minimum inhibitory concentration [3] was 1.56 µg/mL, the Minimum inhibitory concentration [4] was 6.25 µg/mL and the Minimum inhibitory concentration [5] was 3.13 µg/mL. The Minimum inhibitory concentration [6] was 6.25 µg/mL, the Minimum inhibitory concentration [7] was 12.5 µg/mL and the Minimum inhibitory concentration (Serratia marcescens) was 12.5 µg/mL.
CNCC1CCC(N)C(OC2C(N)CC(O)C(N(C)C(=O)CN)C2O)O1 (centres unmarked) [3-O-demethylistamycin B] gave an MIC [1] of 0.39 µg/mL (≈ 1.04 µM), an MIC (Providencia Pv 16; PV16, 37° C.) of 0.78 µg/mL (≈ 2.08 µM) and an MIC (Escherichia coli K-12 R5; Escherichia coli, K12R5, 17 h, read-out: Minimum inhibitory concentration) of 3.13 µg/mL (≈ 8.34 µM). The MIC ([2]; Escherichia coli, JR66/W677, 17 h, read-out: Minimum inhibitory concentration) was 1.56 µg/mL (≈ 4.15 µM), the MIC [3] was 0.39 µg/mL (≈ 1.04 µM) and the MIC [8] was 1.56 µg/mL (≈ 4.15 µM). It also gave an MIC [9] of 1.56 µg/mL (≈ 4.15 µM), an MIC (Escherichia coli JR225) of 0.78 µg/mL (≈ 2.08 µM) and an MIC ([4]; Pseudomonas aeruginosa, TI13, 17 h, read-out: Minimum inhibitory concentration) of 6.25 µg/mL (≈ 16.6 µM). For the same molecule, the MIC (Escherichia coli K-12) was 0.78 µg/mL (≈ 2.08 µM), the MIC ([5]; Pseudomonas aeruginosa, A3, 17 h, read-out: Minimum inhibitory concentration) was 0.2 µg/mL (≈ 0.533 µM) and the MIC ([10]; Escherichia coli, K12LA290R55, 17 h, read-out: Minimum inhibitory concentration) was 0.78 µg/mL (≈ 2.08 µM). It also gave an MIC ([6]; Pseudomonas aeruginosa, GN315, 17 h, read-out: Minimum inhibitory concentration) of 6.25 µg/mL (≈ 16.6 µM), an MIC [7] of 12.5 µg/mL (≈ 33.3 µM) and an MIC (Serratia marcescens; 17 h, read-out: Minimum inhibitory concentration) of 1.56 µg/mL (≈ 4.15 µM). For the same molecule, the death of mice ([11]; 320 mg/kg, within 24 hours) was “all mice died within 24 hours”, the LD50 ([11]; mouse, in vivo, adult female) was 160 to 320 mg/kg and the antibacterial activity [12] was “high antibacterial activity”.
For “3-O-demethylistamycin B-tetra-N-methanesulfonic acid sodium salt [Compound (4)]”, the Minimum inhibitory concentration [1] was 3.13 µg/mL, the Minimum inhibitory concentration (Providencia Pv 16) was 6.25 µg/mL and the Minimum inhibitory concentration (Escherichia coli K-12 R5; Escherichia coli K-12 R5, Mueller-Hinton agar, 37° C., 17 hours) was 25 µg/mL. For the same molecule, the Minimum inhibitory concentration [2] was 25 µg/mL, the Minimum inhibitory concentration [3] was 1.56 µg/mL and the Minimum inhibitory concentration [4] was 25 µg/mL. It also gave a Minimum inhibitory concentration [5] of 1.56 µg/mL, a Minimum inhibitory concentration ([10]; Escherichia coli K-12 LA290 R55, Mueller-Hinton agar, 37° C., 17 hours) of 12.5 µg/mL and a Minimum inhibitory concentration [6] of 25 µg/mL. For the same molecule, the Minimum inhibitory concentration [7] was 25 µg/mL and the Minimum inhibitory concentration (Serratia marcescens) was 25 µg/mL.
Work on “3-O-demethylistamycin B-mono-N-methanesulfonic acid sodium salt [Compound (1)]” yielded a Minimum inhibitory concentration [1] of 1.56 µg/mL, a Minimum inhibitory concentration (Providencia Pv 16) of 3.13 µg/mL and a Minimum inhibitory concentration [2] of 6.25 µg/mL. The Minimum inhibitory concentration [3] was 0.78 µg/mL, the Minimum inhibitory concentration [4] was 6.25 µg/mL and the Minimum inhibitory concentration [5] was 0.78 µg/mL. For the same molecule, the Minimum inhibitory concentration [6] was 12.5 µg/mL, the Minimum inhibitory concentration [7] was 12.5 µg/mL and the Minimum inhibitory concentration (Serratia marcescens) was 6.25 µg/mL.
